{"source": "patent US11117919B2", "about": "“Icariside compound, preparation method thereof, and application thereof” (FOSHAN GOLDEN HEALTH TECHNOLOGY CO., LTD., priority 2015, dated 2021)", "key": {"[1]": {"system": "normal human peripheral blood mononuclear cells (PBMCs)", "assay": "IFN-γ production by PBMCs stimulated with Anti-CD3 (ELISA)", "type": "cell-based", "details": "PBMCs treated with anti-CD3 (1 μg/ml); icariside I 1, 10, 100 ng/ml; 12-48 h; time and dose dependent", "procedure": "(§1) Effect of icariside I on promoting normal human peripheral blood mononuclear cells (PBMCs subjected to mAb treatment) to produce γ-interferon (interferon-gamma, IFN-γ) (an experimental model mimicking enhancing immunity in human body).\n(§2) (1) Preparation of icariside I solution for the test. 10 mg icariside I was dissolved in 1 ml DMSO (with initial concentration of 10 mg/ml). The solution was then transferred into small vials and stored in a freezer at −80° C. for future use.\n(§3) The whole blood samples were drawn from peripheral vein of healthy volunteers. Heparin (blood:heparin=10 ml: 80 μl) was used for anticoagulation. Then, it is diluted with equal volume of Hank's solution. The diluted blood samples were slowly laid on the Ficoll separation solution (Ficoll to diluted blood ratio is 3:4) followed by Ficoll density gradient centrifugation (22° C. 2200 r/min, 20 min). After centrifugation, samples were divided into three layers in the tube. At the interface between the top and middle layers, there was a narrow band which is a mononuclear cell-based yellow-white cloud layer. The peripheral blood mononuclear cells (PBMCs) were drawn and transferred into another centrifuge tube with a pipette. […] The mononuclear cells were counted with trypan blue solution. […]\n(§4) The collected cell culture supernatants with different culture time were detected with ELISA to measure the amount of cytokine IFN-γ produced. […]"}, "[2]": {"system": "human peripheral blood mixed lymphocytes", "assay": "IFN-γ production in mixed lymphocyte culture (MLC) reaction", "type": "cell-based", "details": "120 h", "procedure": "Effect of icariside I on promotion of γ-interferon (interferon-gamma, IFN-γ) production by human peripheral blood mixed lymphocytes during culture (an experimental model mimicking enhancing immunity in human body).\n(1) Preparation of human peripheral blood mononuclear cells (PBMCs): following the method in Example 5 (2), peripheral blood PBMCs from two normal human were prepared.\nCell concentrations of freshly isolated peripheral blood mononuclear cells (PBMCs) were adjusted to […] with RPMI1640 complete medium. Then, lymphocytes from two healthy human with equal volumes were mixed to maintain a total cell concentration of […]. Different concentrations (in a gradient) of or no icariside I were added thereto (with final concentration of 100 ng/ml, 1000 ng/ml) followed by fully mixing. Then the cells after stimulation were seeded and cultured in a 96-well round-bottom culture plate. The cell concentration per well was maintained at 2×10^5/ml (200 μl/well) and was incubated at 37° C. with 5% CO2 for 120 h in an incubator. The levels of cytokine IFN-γ were detected.\nAccording to the method stated in Example 5 (4), the γ-interferon generated from human peripheral blood mixed lymphocyte culture (MLC) was detected.\nEqual cell concentrations of lymphocytes from healthy human were mixed cultured for five days (120 h). The pharmaceutical icariside I was added (in a gradient of different pharmaceutical concentrations) or not added. […] Among them, the human lymphocyte A control is a group of samples containing only one kind of human lymphocyte, while human lymphocyte B control is a group of samples containing two kinds of human lymphocytes, that is, a control group in which two kinds of human lymphocytes were mixed for culture without adding icariside I. The concentrations of icariside I added were 0.1 and 1 μg/ml respectively. *P<0.05; **P<0.01. […]\nCell concentrations of freshly isolated peripheral blood mononuclear cells (PBMCs) were adjusted to 5×10^5/ml with RPMI1640 complete medium. […] The level of cytokine IFN-γ produced was then detected."}, "[3]": {"type": "in vivo", "details": "observation for 14 days", "procedure": "Mice weighed 18-22 grams were randomly divided into six groups with 10 mice each group. Each individual group of mice were treated (orally) with: physiological saline, DMSO 2.5 ml/kg, and icariside I: 2000 mg/kg, 1000 mg/kg, 500 mg/kg, 100 mg/kg respectively. […] Therefore, the acute toxicity of icariside I is very low which is safe for use in preparation of pharmaceuticals, health products, food, and cosmetic and skin care products for prevention and treatment of immunity-related diseases."}, "[4]": {"system": "normal human peripheral blood mononuclear cells (PBMCs)", "assay": "IFN-γ production by PBMCs stimulated with Anti-CD3/Anti-CD28 (ELISA)", "type": "cell-based", "details": "PBMCs treated with anti-CD3 and anti-CD28 (1 μg/ml each); icariside I 1, 10, 100 ng/ml; 12-48 h; dose-dependent", "procedure": "as §1, §2, §3, §4"}}, "note": "“Also recorded” adds a separate entry of the source.", "data": [{"compound": "COc1ccc(-c2oc3c(CC=C(C)C)c(O[C@@H]4O[C@H](CO)[C@@H](O)[C@H](O)[C@H]4O)cc(O)c3c(=O)c2O)cc1", "note": "[icariside I]", "values": [{"measurement": "IFN-γ level produced by PBMCs", "setting": "[1]", "result": "significantly enhanced; also recorded: significantly increased"}, {"measurement": "promotion of generation of IFN-γ in the mixed lymphocyte culture", "setting": "[2]; 100 and 1000 ng/ml, dose dependent", "result": "up to 300%"}, {"measurement": "ability to promote human γ-interferon production in mixed lymphocyte culture", "setting": "[2]; final concentration 1000 ng/ml", "result": "best ability"}, {"measurement": "acute toxicity LD50", "setting": "[3]; mice, oral", "result": "greater than 2000 mg/kg"}, {"measurement": "deaths of test mice", "setting": "[3]; oral 100-2000 mg/kg", "result": "none of the test mice died"}, {"measurement": "IFN-γ level produced by PBMCs", "setting": "[4]", "result": "significantly enhanced"}]}]}
